From patent US9844550B2, “Phtalazinone derivatives and manufacturing process thereof” (ILDONG PHARM CO., LTD., priority 2013, dated 2017)

System: MDA-MB-436 breast cancer cell line
Test: Cell viability assay (MDA-MB-436)
Type: cell-based
Settings: Homo sapiens, 144 h; MDA-MB-436 cells, treated 6 days
Experimental: 2. Cell Viability Assay (MDA-MB-436)
Cell viability assay was performed by using MDA-MB-436 cell line to measure cytotoxicity of compounds in the present invention. MDA-MB-436 breast cancer cell line was seeded into 96-well plates at 37° C. under 5% CO2 atmosphere using DMEM/F12 (Gibco) containing 10% FBS (Hyclone). After 24 hr incubation, cells were treated with the invented compounds at various concentrations for 6 days. The medium was changed every 3 day. 6 days later, A fluorescence reagent was used to determine the IC50 values.

| Structure (SMILES) | IC50 |
| --- | --- |
| CN(Cc1ccncc1)[C@@H]1CCN(C(=O)c2cc(Cc3n[nH]c(=O)c4ccccc34)ccc2F)C1 [Compound I-61, (R)-4-(4-fluoro-3-(3-(methyl(pyridin-4-ylmethyl)amino)pyrrolidine-1-carbonyl)benzyl)phthalazin-1(2H)-one] | 50 to 300 nM |
| CC1(C)NC(=O)N(C2CN(C(=O)c3cc(Cc4n[nH]c(=O)c5ccccc45)ccc3F)C2)C1=O [Compound I-14, 3-(1-(2-fluoro-5-((4-oxo-3,4-dihydrophthalazin-1-yl)methyl)benzoyl)azetidin-3-yl)-5,5-dimethylimidazolidine-2,4-dione] | 50 to 300 nM |
| N#CC1(CNCC2CN(C(=O)c3cc(Cc4n[nH]c(=O)c5ccccc45)ccc3F)C2)CC1 [Compound I-151, 1-((((1-(2-fluoro-5-((4-oxo-3,4-dihydrophthalazin-1-yl)methyl)benzoyl)azetidin-3-yl)methyl)amino)methyl)cyclopropanecarbonitrile] | 300 to 1000 nM |
| N#CC1(NC2CN(C(=O)c3cc(Cc4n[nH]c(=O)c5ccccc45)ccc3F)C2)CCCC1 [Compound I-98, 1-((1-(2-fluoro-5-((4-oxo-3,4-dihydrophthalazin-1-yl)methyl)benzoyl)azetidin-3-yl)amino)cyclopentanecarbonitrile] | 300 to 1000 nM |
| CCC(C#N)NC1CN(C(=O)c2cc(Cc3n[nH]c(=O)c4ccccc34)ccc2F)C1 (centres unmarked) [Compound I-101, 2-((1-(2-fluoro-5-((4-oxo-3,4-dihydrophthalazin-1-yl)methyl)benzoyl)azetidin-3-yl)amino)butanenitrile] | 300 to 1000 nM |
| CN1CCN(C2CN(C(=O)c3cc(Cc4n[nH]c(=O)c5ccccc45)ccc3F)C2)CC1 [Compound I-78, 4-(4-fluoro-3-(3-(4-methylpiperazin-1-yl)azetidine-1-carbonyl)benzyl)phthalazin-1(2H)-one] | 300 to 1000 nM |
| CCOC(=O)C1=C(NC2CN(C(=O)c3cc(Cc4n[nH]c(=O)c5ccccc45)ccc3F)C2)CCC1 [Compound I-39, ethyl 2-((1-(2-fluoro-5-((4-oxo-3,4-dihydrophthalazin-1-yl)methyl)benzoyl)azetidin-3-yl)amino)cyclopent-1-enecarboxylate] | 300 to 1000 nM |
| COCC1(NC2CN(C(=O)c3cc(Cc4n[nH]c(=O)c5ccccc45)ccc3F)C2)CC1 [Compound I-90, 4-(4-fluoro-3-(3-((1-(methoxymethyl)cyclopropyl)amino)azetidine-1-carbonyl)benzyl)phthalazin-1(2H)-one] | 50 to 300 nM |
| Cc1ccc(N[C@@H]2CCN(C(=O)c3cc(Cc4n[nH]c(=O)c5ccccc45)ccc3F)C2)cc1 [Compound I-138, (R)-4-(4-fluoro-3-(3-(p-tolylamino)pyrrolidine-1-carbonyl)benzyl)phthalazin-1(2H)-one] | 300 to 1000 nM |
| CC(C)[C@H](C)NC1CN(C(=O)c2cc(Cc3n[nH]c(=O)c4ccccc34)ccc2F)C1 [Compound I-89, (S)-4-(4-fluoro-3-(3-((3-methylbutan-2-yl)amino)azetidine-1-carbonyl)benzyl)phthalazin-1(2H)-one] | 5 to 50 nM |
| O=C(c1cc(Cc2n[nH]c(=O)c3ccccc23)ccc1F)N1CC(N2CCC(F)CC2)C1 [Compound I-74, 4-(4-fluoro-3-(3-(4-fluoropiperidin-1-yl)azetidine-1-carbonyl)benzyl)phthalazin-1(2H)-one] | 5 to 50 nM |
| CCN(CC1CN(C(=O)c2cc(Cc3n[nH]c(=O)c4ccccc34)ccc2F)C1)C1CC1 [Compound I-155, 4-(3-(3-((cyclopropyl(ethyl)amino)methyl)azetidine-1-carbonyl)-4-fluorobenzyl)phthalazin-1(2H)-one] | 50 to 300 nM |
| O=C(c1cc(Cc2n[nH]c(=O)c3ccccc23)ccc1F)N1CC[C@@H](N2CCCC2)C1 [Compound I-136, (R)-4-(3-([1,3′-bipyrrolidine]-1′-carbonyl)-4-fluorobenzyl)phthalazin-1(2H)-one] | 5 to 50 nM |
| CC(C)=CCNC1CN(C(=O)c2cc(Cc3n[nH]c(=O)c4ccccc34)ccc2F)C1 [Compound I-54, 4-(4-fluoro-3-(3-((3-methylbut-2-en-1-yl)amino)azetidine-1-carbonyl)benzyl)phthalazin-1(2H)-one] | 5 to 50 nM |
| O=C(c1cc(Cc2n[nH]c(=O)c3ccccc23)ccc1F)N1CC[C@H](Nc2ncccn2)C1 [Compound I-110, (S)-4-(4-fluoro-3-(3-(pyrimidin-2-ylamino)pyrrolidine-1-carbonyl)benzyl)phthalazin-1(2H)-one] | 300 to 1000 nM |
| CCCCCNC1CN(C(=O)c2cc(Cc3n[nH]c(=O)c4ccccc34)ccc2F)C1 [Compound I-57, 4-(4-fluoro-3-(3-(pentylamino)azetidine-1-carbonyl)benzyl)phthalazin-1(2H)-one] | 5 to 50 nM |
| CN(c1ccc(Cl)nn1)[C@H]1CCN(C(=O)c2cc(Cc3n[nH]c(=O)c4ccccc34)ccc2F)C1 [Compound I-111, (S)-4-(3-(3-((6-chloropyridazin-3-yl)(methyl)amino)pyrrolidine-1-carbonyl)-4-fluorobenzyl)phthalazin-1(2H)-one] | 300 to 1000 nM |
| C=CCNC1CN(C(=O)c2cc(Cc3n[nH]c(=O)c4ccccc34)ccc2F)C1 [Compound I-51, 4-(3-(3-(allylamino)azetidine-1-carbonyl)-4-fluorobenzyl)phthalazin-1(2H)-one] | 5 to 50 nM |

| Structure (SMILES) | IC50 |
| --- | --- |
| O=C(c1cc(Cc2n[nH]c(=O)c3ccccc23)ccc1F)N1CC(N2CCCC2)C1 [Compound I-76, 4-(4-fluoro-3-(3-(pyrrolidin-1-yl)azetidine-1-carbonyl)benzyl)phthalazin-1(2H)-one] | 5 to 50 nM |
| CC1(C)CCCC1NC1CN(C(=O)c2cc(Cc3n[nH]c(=O)c4ccccc34)ccc2F)C1 (centres unmarked) [Compound I-38, 4-(3-(3-((2,2-dimethylcyclopentyl)amino)azetidine-1-carbonyl)-4-fluorobenzyl)phthalazin-1(2H)-one] | 5 to 50 nM |
| O=C(c1cc(Cc2n[nH]c(=O)c3ccccc23)ccc1F)N1CC(N(CC2CC2)CC2CC2)C1 [Compound I-34, 4-(3-(3-(bis(cyclopropylmethyl)amino)azetidine-1-carbonyl)-4-fluorobenzyl)phthalazin-1(2H)-one] | 300 to 1000 nM |
| C=C(C)CNC1CN(C(=O)c2cc(Cc3n[nH]c(=O)c4ccccc34)ccc2F)C1 [Compound I-92, 4-(4-fluoro-3-(3-((2-methylallyl)amino)azetidine-1-carbonyl)benzyl)phthalazin-1(2H)-one] | 5 to 50 nM |
| CCCNC1CN(C(=O)c2cc(Cc3n[nH]c(=O)c4ccccc34)ccc2F)C1 [Compound I-59, 4-(4-fluoro-3-(3-(propylamino)azetidine-1-carbonyl)benzyl)phthalazin-1(2H)-one] | 5 to 50 nM |
| C[C@@H](NC1CN(C(=O)c2cc(Cc3n[nH]c(=O)c4ccccc34)ccc2F)C1)C(C)(C)C [Compound I-86, (R)-4-(3-(3-((3,3-dimethylbutan-2-yl)amino)azetidine-1-carbonyl)-4-fluorobenzyl)phthalazin-1(2H)-one] | 5 to 50 nM |
| O=C(c1cc(Cc2n[nH]c(=O)c3ccccc23)ccc1F)N1CC(NCCC(F)(F)F)C1 [Compound I-134, 4-(4-fluoro-3-(3-((3,3,3-trifluoropropyl)amino)azetidine-1-carbonyl)benzyl)phthalazin-1(2H)-one] | 50 to 300 nM |
| O=C(c1cc(Cc2n[nH]c(=O)c3ccccc23)ccc1F)N1CC(NC2(C(F)(F)F)CCC2)C1 [Compound I-104, 4-(4-fluoro-3-(3-((1-(trifluoromethyl)cyclobutyl)amino)azetidine-1-carbonyl)benzyl)phthalazin-1(2H)-one] | 300 to 1000 nM |
| CC(C)[C@@H](C)NC1CN(C(=O)c2cc(Cc3n[nH]c(=O)c4ccccc34)ccc2F)C1 [Compound I-88, (R)-4-(4-fluoro-3-(3-((3-methylbutan-2-yl)amino)azetidine-1-carbonyl)benzyl)phthalazin-1(2H)-one] | ≤ 5 nM |
| CC(C)NCC1CN(C(=O)c2cc(Cc3n[nH]c(=O)c4ccccc34)ccc2F)C1 [Compound I-144, 4-(4-fluoro-3-(3-((isopropylamino)methyl)azetidine-1-carbonyl)benzyl)phthalazin-1(2H)-one] | ≤ 5 nM |
| O=C(c1cc(Cc2n[nH]c(=O)c3ccccc23)ccc1F)N1CC(NCc2ccccc2)C1 [Compound I-133, 4-(3-(3-(benzylamino)azetidine-1-carbonyl)-4-fluorobenzyl)phthalazin-1(2H)-one] | 50 to 300 nM |
| O=C(c1cc(Cc2n[nH]c(=O)c3ccccc23)ccc1F)N1CC(Nc2ncccn2)C1 [Compound I-109, 4-(4-fluoro-3-(3-(pyrimidin-2-ylamino)azetidine-1-carbonyl)benzyl)phthalazin-1(2H)-one] | 300 to 1000 nM |
| CCCC(C)NC1CN(C(=O)c2cc(Cc3n[nH]c(=O)c4ccccc34)ccc2F)C1 (centres unmarked) [Compound I-48, 4-(4-fluoro-3-(3-(pentan-2-ylamino)azetidine-1-carbonyl)benzyl)phthalazin-1(2H)-one] | ≤ 5 nM |
| O=C(c1cc(Cc2n[nH]c(=O)c3ccccc23)ccc1F)N1CC(N2CCCCC2)C1 [Compound I-77, 4-(4-fluoro-3-(3-(piperidin-1-yl)azetidine-1-carbonyl)benzyl)phthalazin-1(2H)-one] | 50 to 300 nM |
| CN(CC1CN(C(=O)c2cc(Cc3n[nH]c(=O)c4ccccc34)ccc2F)C1)C1CC1 [Compound I-154, 4-(3-(3-((cyclopropyl(methyl)amino)methyl)azetidine-1-carbonyl)-4-fluorobenzyl)phthalazin-1(2H)-one] | 300 to 1000 nM |
| N#Cc1cnc(N[C@@H]2CCN(C(=O)c3cc(Cc4n[nH]c(=O)c5ccccc45)ccc3F)C2)nc1 [Compound I-126, (R)-2-((1-(2-fluoro-5-((4-oxo-3,4-dihydrophthalazin-1-yl)methyl)benzoyl)pyrrolidin-3-yl)amino)pyrimidine-5-carbonitrile] | 5 to 50 nM |
| O=C(c1cc(Cc2n[nH]c(=O)c3ccccc23)ccc1F)N1CC(N2CCC(F)(F)C2)C1 [Compound I-73, 4-(3-(3-(3,3-difluoropyrrolidin-1-yl)azetidine-1-carbonyl)-4-fluorobenzyl)phthalazin-1(2H)-one] | 50 to 300 nM |
